From patent publication US6156700A, “3-(1,2-Benzisothiazol- and isoxazol-5-yl)-2,4(1H,3H)-pyrimidinedione or thione and 3-(1,2-benzisothiazol- and isoxazol-5-yl)-4(3H)-pyrimidinone or thione herbicidal agents” (American Cyanmid Company, priority 1998, dated 2000)

Tests used:
ORYSAT Rice, Tebonnet [1] = test: Rice tolerance, flooded paddy (Table IV); format: in vivo, Oryza sativa; design: scale not given here; settings: crop tolerance
Summary of the method: (§1)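 Herbicidal effect is scored visually on a rating scale three to four weeks after compounds, in aqueous/acetone 50/50 v/v, are added to flood water at roughly 0.0313 to 0.500 kg/ha. Plants: weeds 3 to 5 cm tall, rice at 1.5 to 2.5 leaves.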

[2] = system: Barnyardgrass, Echinochloa crus-galli; test: Postemergence herbicidal evaluation, ECHCG; format: in vivo, (L.) Beau; settings: 0.2500 kg/ha
Summary of the method: (§2)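 Plants were raised for roughly two weeks, then treated by spraying at 40 psi with test compound dispersed in 50/50 acetone/water with 0.5% TWEEN 20, giving about 0.0157 to 0.500 kg/ha. After four to five weeks in the greenhouse they were scored 0–9 against a control.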

Corn, Field, Zea mays = test: Postemergence herbicidal evaluation, ZEAMX; format: in vivo, L.; settings: 0.2500 kg/ha
Summary of the method: as §2

[3] = system: Foxtail, Green, Setaria viridis; test: Preemergence herbicidal evaluation, SETVI; format: in vivo, (L.) Beau; settings: 0.2500 kg/ha
Summary of the method: (§3)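 Sow seeds in soil-filled cups; spray aqueous acetone compound solution at about 0.0156–0.500 kg/ha; keep on greenhouse benches with routine watering; after four to five weeks, rate visual injury 0–9 compared with control plants.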

[4] = system: Velvetleaf, Abutilon theophrasti; test: Postemergence herbicidal evaluation, ABUTH; format: in vivo, Medic.; settings: 0.2500 kg/ha
Summary of the method: as §2

CYPSE Flatsedge [5] = test: Postemergence weed control, flooded paddy (Table IV); format: in vivo, Cyperus serotinus; design: scale not given here
Summary of the method: as §1

[6] = system: Wheat, Winter, cv Riband, Triticum aestivum; test: Preemergence herbicidal evaluation, TRZAWR; format: in vivo; settings: 0.2500 kg/ha
Summary of the method: as §3

ORYSAT Rice, Tebonnet [7] = test: Tolerance of transplanted rice to post-transplant application (Table III); format: in vivo, Oryza sativa; design: scale not given here; settings: crop tolerance
Description: The tolerance of transplanted rice to post-transplanted herbicide applications is determined as follows: two ten-day-old rice seedlings (cv. Tebonnet) are transplanted into silt loam soil in 32 oz. plastic containers with a diameter of 10.5 cm and no drainage holes. After transplanting, the containers are flooded and the water level is maintained at 1.5 to 3 cm above the soil surface. Three days after transplanting, the flooded soil surface of the containers is treated with the selected aqueous/acetone 50/50 v/v mixture containing the test compounds to provide the equivalent of about 0.0313 to 0.500 kg/ha of active ingredient. The treated containers are placed on greenhouse benches, watered such that the water level is maintained as stated above, and cared for in accordance with conventional greenhouse procedures. Three to four weeks after treatment, the test is terminated and each container is examined and herbicidal effect rated according to the rating system provided in Example 185. The compounds evaluated are reported by compound number given in Example 185.

[8] = system: Sicklepod, Cassia obtusifolia; test: Preemergence herbicidal evaluation, CASOB; format: in vivo, L.; settings: 0.2500 kg/ha
Summary of the method: as §3

[9] = system: Soybean, Williams, Glycine max; test: Postemergence herbicidal evaluation, GLXMAW; format: in vivo, (L.) Merr. cv Williams; settings: 0.2500 kg/ha
Summary of the method: as §2

[10] = system: Morningglory Spp., Ipomoea Spp.; test: Postemergence herbicidal evaluation, IPOSS; format: in vivo; settings: 0.2500 kg/ha
Description: In the tests, seedling plants are grown in jiffy flats for about two weeks. The test compounds are dispersed in 50/50 acetone/water mixtures containing 0.5% TWEEN®20, a polyoxyethylene sorbitan monolaurate surfactant of Atlas Chemical Industries, in sufficient quantities to provide the equivalent of about 0.0157 kg to 0.500 kg per hectare of active compound when applied to the plants through a spray nozzle operating at 40 psi for a predetermined time. After spraying, the plants are placed on greenhouse benches and are cared for in accordance with conventional greenhouse procedures. From four to five weeks after treatment, the seedling plants are examined and rated according to the rating system set forth below. Where more than one test is involved for a given compound, the data are averaged.
Results of herbicide evaluation are expressed on a rating scale (0-9). The scale is based upon a visual observation of plant stand, vigor, malformation, size, chlorosis and overall plant appearance as compared with a control.

CYPSE Flatsedge [11] = test: Preemergence weed control, flooded paddy (Table III); format: in vivo, Cyperus serotinus; design: scale not given here
Description: Preemergence herbicidal activity under flooded paddy conditions is determined as follows: plant seeds or propagating organs are planted in the top 0.5 cm of silt loam soil in 32 oz. plastic containers with a diameter of 10.5 cm and no drainage holes. Water is added to these containers and maintained at 1.5 to 3 cm above the soil surface for the duration of the experiment. The test compounds are applied as aqueous/acetone mixtures 50/50 v/v pipetted directly into the flood water to give the equivalent of about 0.0313 to 0.500 kg/ha of active ingredient. The treated containers are placed on greenhouse benches and cared for in accordance with conventional greenhouse procedures. Three to four weeks after treatment, the test is terminated and each container is examined and herbicidal effect rated according to the rating system provided in Example 185. The compounds evaluated are reported by compound number given in Example 185.

[12] = system: Rice, Tebonnet, Oryza sativa; test: Preemergence herbicidal evaluation, ORYSAT; format: in vivo, (L.) Tebonnet; settings: 0.2500 kg/ha
Summary of the method: as §3

[13] = system: SAGPY Arrowhead (Pygmaea); test: Postemergence weed control, flooded paddy (Table IV); format: in vivo, Sagittaria pygmaea; design: scale not given here
Summary of the method: as §1

Row | SMILES | herbicidal effect rating (ORYSAT Rice, Tebonnet [1]; 0.1250 kg/ha) | herbicidal effect rating (ORYSAT Rice, Tebonnet [1]; 0.2500 kg/ha) | herbicidal effect rating (ORYSAT Rice, Tebonnet [1]; 0.5000 kg/ha) | herbicide rating (0-9) [2] | herbicide rating (0-9) (Corn, Field, Zea mays) | herbicide rating (0-9) [3] | herbicide rating (0-9) [4] | herbicidal effect rating (CYPSE Flatsedge [5]; 0.5000 kg/ha) | herbicide rating (0-9) [6] | herbicidal effect rating (ORYSAT Rice, Tebonnet [7]; 0.0313 kg/ha) | herbicidal effect rating (ORYSAT Rice, Tebonnet [7]; 0.0625 kg/ha) | herbicidal effect rating (ORYSAT Rice, Tebonnet [7]; 0.1250 kg/ha) | herbicidal effect rating (ORYSAT Rice, Tebonnet [7]; 0.2500 kg/ha) | herbicidal effect rating (ORYSAT Rice, Tebonnet [7]; 0.5000 kg/ha) | herbicide rating (0-9) [8] | herbicide rating (0-9) [9] | herbicide rating (0-9) [10] | herbicidal effect rating (CYPSE Flatsedge [11]; 0.0313 kg/ha) | herbicidal effect rating (CYPSE Flatsedge [11]; 0.0625 kg/ha) | herbicidal effect rating (CYPSE Flatsedge [11]; 0.1250 kg/ha) | also measured
1 | COC(=O)COc1cc(C)c(C)cc1-c1nsc2ccc(-n3c(=O)cc(C(F)(F)F)n(C)c3=O)cc12 [Compound 12, Methyl {{6-{5-[3,6-dihydro-3-methyl-4-(trifluoromethyl)-2,6-dioxo-1(2H)-pyrimidinyl]-1,2-benzisothiazol-3-yl}-3,4-xylyl}oxy}acetate] | 7.0 | 7.0 | 7.0 | 9.0 | 9.0 | 9.0 | 9.0 | 2.0 | 5.0 | 4.0 | 7.0 | 7.0 | 8.0 | 9.0 | 9.0 | 9.0 | 9.0 | 6.0 | 7.0 | 8.0 | herbicidal effect rating (CYPSE Flatsedge [11]; 0.2500 kg/ha): 7.0; herbicidal effect rating (CYPSE Flatsedge [11]; 0.5000 kg/ha): 7.0; herbicide rating (0-9) [12]: 7.0; herbicidal effect rating ([13]; 0.1250 kg/ha): 0.0; herbicidal effect rating ([13]; 0.2500 kg/ha): 4.0; herbicidal effect rating ([13]; 0.5000 kg/ha): 9.0
2 | COc1cc(C)ccc1-c1nsc2ccc(-n3c(=O)cc(C(F)(F)F)n(C)c3=O)cc12 [Compound 7, 3-[3-(2-Methoxy-p-tolyl)-1,2-benzisothiazol-5-yl]-1-methyl-6-(trifluoromethyl)-2,4(1H,3H)-pyrimidinedione] | 7.0 | 7.0 | 8.0 | 8.0 | 7.0 | 9.0 | 9.0 | 8.0 | 6.0 | 6.0 | 8.0 | 7.0 | 7.0 | 9.0 | 9.0 | 9.0 | 9.0 | 7.0 | 7.0 | 8.0 | herbicidal effect rating (CYPSE Flatsedge [5]; 0.1250 kg/ha): 9.0; herbicidal effect rating (CYPSE Flatsedge [5]; 0.2500 kg/ha): 9.0; herbicidal effect rating (CYPSE Flatsedge [11]; 0.2500 kg/ha): 7.0; herbicidal effect rating (CYPSE Flatsedge [11]; 0.5000 kg/ha): 9.0; herbicide rating (0-9) [12]: 8.0; herbicidal effect rating ([13]; 0.1250 kg/ha): 4.0; herbicidal effect rating ([13]; 0.2500 kg/ha): 9.0; herbicidal effect rating ([13]; 0.5000 kg/ha): 9.0
3 | COC(=O)COc1cc(C)ccc1-c1nsc2ccc(-n3c(=O)cc(C(F)(F)F)n(C)c3=O)cc12 [Compound 8, Methyl {{6-{5-[3,6-dihydro-3-methyl-4-(trifluoromethyl)-2,6-dioxo-1(2H)-pyrimidinyl]-1,2-benzisothiazol-3-yl}-m-tolyl}oxy}acetate] | 6.0 | 8.0 | 9.0 | 9.0 | 9.0 | 9.0 | 9.0 | 9.0 | 9.0 | 7.0 | 7.0 | 9.0 | 9.0 | 9.0 | 9.0 | 9.0 | 9.0 | 4.0 | 9.0 | 9.0 | herbicidal effect rating (CYPSE Flatsedge [5]; 0.1250 kg/ha): 7.0; herbicidal effect rating (CYPSE Flatsedge [5]; 0.2500 kg/ha): 7.0; herbicidal effect rating (CYPSE Flatsedge [11]; 0.2500 kg/ha): 9.0; herbicidal effect rating (CYPSE Flatsedge [11]; 0.5000 kg/ha): 9.0; herbicide rating (0-9) [12]: 9.0; herbicidal effect rating ([13]; 0.1250 kg/ha): 4.0; herbicidal effect rating ([13]; 0.2500 kg/ha): 9.0; herbicidal effect rating ([13]; 0.5000 kg/ha): 9.0
